Species on record: Rattus norvegicus
Test: DrugMatrix - Regimen: Daily Repeat
Format: toxicity, organism-based, Sprague-Dawley
Design: regimen Daily Repeat, gender Male, age 6-8 weeks
Details: in vivo, po, route oral GAVAGE, vehicle .5 % CMC; for BASOPHIL / EOSINOPHIL / ERYTHROCYTE COUNT / HEMATOCRIT / HEMOGLOBIN / LEUKOCYTE COUNT / LYMPHOCYTE / MEAN CORPUSCULAR HEMOGLOBIN / MEAN CORPUSCULAR HEMOGLOBIN CONCENTRATION / MEAN CORPUSCULAR VOLUME / MONOCYTE / NEUTROPHIL / PLATELET COUNT: tissue Blood; for ALANINE AMINOTRANSFERASE / ALBUMIN / ALKALINE PHOSPHATASE / ASPARTATE AMINOTRANSFERASE / BLOOD UREA NITROGEN / CHLORIDE / CHOLESTEROL / CREATINE PHOSPHOKINASE / CREATININE / GLUCOSE / PHOSPHORUS / POTASSIUM / SODIUM / TOTAL BILIRUBIN / TOTAL PROTEIN: tissue Plasma
[1] = 20 mg/kg, 72 h, dose level Low, time 3 day
[2] = 20 mg/kg, 120 h, dose level Low, time 5 day
[3] = 380 mg/kg, 72 h, dose level High, time 3 day
[4] = 380 mg/kg, 120 h, dose level High, time 5 day

SMILES: CNCCCC12CCC(c3ccccc31)c1ccccc12 [MAPROTILINE]
- BASOPHIL [1]: 0%
- EOSINOPHIL [1]: 0.33%
- ERYTHROCYTE COUNT [1]: 5.97 x10E6/uL
- HEMATOCRIT [1]: 35.97%
- HEMOGLOBIN [1]: 14.2 G/DL
- LEUKOCYTE COUNT [1]: 11.3 x10E3/uL
- LYMPHOCYTE [1]: 87.33%
- MEAN CORPUSCULAR HEMOGLOBIN [1]: 23.77 pg
- MEAN CORPUSCULAR HEMOGLOBIN CONCENTRATION [1]: 39.47 G/DL
- MEAN CORPUSCULAR VOLUME [1]: 60.2 fL
- MONOCYTE [1]: 1.67%
- NEUTROPHIL [1]: 10.67%
- PLATELET COUNT [1]: 1123 x10E3/uL
- ALANINE AMINOTRANSFERASE [1]: 39.33 u/L
- ALBUMIN [1]: 3.83 G/DL
- ALKALINE PHOSPHATASE [1]: 403 u/L
- ASPARTATE AMINOTRANSFERASE [1]: 64 u/L
- BLOOD UREA NITROGEN [1]: 12.67 mg/dL
- CHLORIDE [1]: 106.67 MEQ/L
- CHOLESTEROL [1]: 71.67 mg/dL
- CREATINE PHOSPHOKINASE [1]: 175 u/L
- CREATININE [1]: 0.67 mg/dL
- GLUCOSE [1]: 177.33 mg/dL
- PHOSPHORUS [1]: 12.37 mg/dL
- POTASSIUM [1]: 6.9 MEQ/L
- SODIUM [1]: 151.33 MEQ/L
- TOTAL BILIRUBIN [1]: 0.57 mg/dL
- TOTAL PROTEIN [1]: 6.1 G/DL
- BASOPHIL [2]: 0%
- EOSINOPHIL [2]: 1%
- ERYTHROCYTE COUNT [2]: 6.02 x10E6/uL
- HEMATOCRIT [2]: 36.33%
- HEMOGLOBIN [2]: 15.57 G/DL
- LEUKOCYTE COUNT [2]: 13.27 x10E3/uL
- LYMPHOCYTE [2]: 86.33%
- MEAN CORPUSCULAR HEMOGLOBIN [2]: 25.9 pg
- MEAN CORPUSCULAR HEMOGLOBIN CONCENTRATION [2]: 42.9 G/DL
- MEAN CORPUSCULAR VOLUME [2]: 60.4 fL
- MONOCYTE [2]: 1.33%
- NEUTROPHIL [2]: 11.33%
- PLATELET COUNT [2]: 1112.33 x10E3/uL
- ALANINE AMINOTRANSFERASE [2]: 38.67 u/L
- ALBUMIN [2]: 3.83 G/DL
- ALKALINE PHOSPHATASE [2]: 339.67 u/L
- ASPARTATE AMINOTRANSFERASE [2]: 60 u/L
- BLOOD UREA NITROGEN [2]: 14.33 mg/dL
- CHLORIDE [2]: 108.67 MEQ/L
- CHOLESTEROL [2]: 65.33 mg/dL
- CREATINE PHOSPHOKINASE [2]: 168.67 u/L
- CREATININE [2]: 0.7 mg/dL
- GLUCOSE [2]: 182.33 mg/dL
- PHOSPHORUS [2]: 12 mg/dL
- POTASSIUM [2]: 6.77 MEQ/L
- SODIUM [2]: 149 MEQ/L
- TOTAL BILIRUBIN [2]: 0.6 mg/dL
- TOTAL PROTEIN [2]: 6.27 G/DL
- BASOPHIL [3]: 0%
- EOSINOPHIL [3]: 0.33%
- ERYTHROCYTE COUNT [3]: 6.59 x10E6/uL
- HEMATOCRIT [3]: 38.93%
- HEMOGLOBIN [3]: 15.5 G/DL
- LEUKOCYTE COUNT [3]: 12 x10E3/uL
- LYMPHOCYTE [3]: 88.67%
- MEAN CORPUSCULAR HEMOGLOBIN [3]: 23.53 pg
- MEAN CORPUSCULAR HEMOGLOBIN CONCENTRATION [3]: 39.8 G/DL
- MEAN CORPUSCULAR VOLUME [3]: 59.17 fL
- MONOCYTE [3]: 2.33%
- NEUTROPHIL [3]: 8.67%
- PLATELET COUNT [3]: 1142.67 x10E3/uL
- ALANINE AMINOTRANSFERASE [3]: 38 u/L
- ALBUMIN [3]: 3.63 G/DL
- ALKALINE PHOSPHATASE [3]: 350.33 u/L
- ASPARTATE AMINOTRANSFERASE [3]: 63.67 u/L
- BLOOD UREA NITROGEN [3]: 14.33 mg/dL
- CHLORIDE [3]: 106.33 MEQ/L
- CHOLESTEROL [3]: 88.67 mg/dL
- CREATINE PHOSPHOKINASE [3]: 166.33 u/L
- CREATININE [3]: 0.5 mg/dL
- GLUCOSE [3]: 164.67 mg/dL
- PHOSPHORUS [3]: 10.83 mg/dL
- POTASSIUM [3]: 6.27 MEQ/L
- SODIUM [3]: 152.33 MEQ/L
- TOTAL BILIRUBIN [3]: 0.4 mg/dL
- TOTAL PROTEIN [3]: 5.93 G/DL
- BASOPHIL [4]: 0%
- EOSINOPHIL [4]: 1%
- ERYTHROCYTE COUNT [4]: 7.43 x10E6/uL
- HEMATOCRIT [4]: 42%
- HEMOGLOBIN [4]: 16.1 G/DL
- LEUKOCYTE COUNT [4]: 7.2 x10E3/uL
- LYMPHOCYTE [4]: 85%
- MEAN CORPUSCULAR HEMOGLOBIN [4]: 21.7 pg
- MEAN CORPUSCULAR HEMOGLOBIN CONCENTRATION [4]: 38.3 G/DL
- MEAN CORPUSCULAR VOLUME [4]: 56.5 fL
- MONOCYTE [4]: 1%
- NEUTROPHIL [4]: 13%
- PLATELET COUNT [4]: 1275 x10E3/uL
- ALANINE AMINOTRANSFERASE [4]: 81 u/L
- ALBUMIN [4]: 3.7 G/DL
- ALKALINE PHOSPHATASE [4]: 457 u/L
- ASPARTATE AMINOTRANSFERASE [4]: 158 u/L
- BLOOD UREA NITROGEN [4]: 17.5 mg/dL
- CHLORIDE [4]: 108 MEQ/L
- CHOLESTEROL [4]: 44.5 mg/dL
- CREATINE PHOSPHOKINASE [4]: 289 u/L
- CREATININE [4]: 0.65 mg/dL
- GLUCOSE [4]: 206 mg/dL
- PHOSPHORUS [4]: 12.6 mg/dL
- POTASSIUM [4]: 7.3 MEQ/L
- SODIUM [4]: 151.5 MEQ/L
- TOTAL BILIRUBIN [4]: 0.35 mg/dL
- TOTAL PROTEIN [4]: 5.95 G/DL
